Structures are written as SMILES. Read-outs that look alike come from different tables or passages of the source.

The subject of one series is Ehrlich acites carcinoma. Nature of the series: Growth-inhibiting effect against Ehrlich acites carcinoma. The series is classed as in vivo, male mice. The note with it: Mus musculus, Ehrlich, 120 h, 5 days; for response vs control in vivo at 25 mg/kg: 25 mg/kg/day ip; for response vs control in vivo at 100 mg/kg: 100 mg/kg/day ip. In a few lines: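 Male mice (groups of 6) implanted intraperitoneally with 1×10^7 Ehrlich ascites cells; compounds in 1% Nikkol HCO-60 given i.p. once daily for 5 days starting 24 hrs post-implantation. Total packed cell volume measured at day 7; T/C% vs untreated group, scored - (100-66), + (65-41), ++ (40-11), +++ (10-0).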

The next series concerns Leukemia L1210. Description: Activity against Leukemia L1210, intraperitoneal, increase in life span of mice. The series is classed as in vivo, female mice (BDF1 family). The note with it: for ED (maximum ILS) / ED30: Mus musculus, L1210, ip, ip once a day for 5 successive days; for ED (maximum ILS): daily dosage giving maximum increase of life span, read-out: O.D. (optimum dosage); for ED30: daily dosage increasing average survival days by 30%, read-out: ILS30; for Survivors after 60 days / Max. ILS % / Therapeutic ratio TR: ip; for Survivors after 60 days: 6-membered group; for Max. ILS %: 60-day observation, versus control; for Therapeutic ratio TR: O.D./ILS30. The method, boiled down: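 Female BDF1 mice (20 to 23 g; 6 per group) were implanted intraperitoneally with 1×10^5 L1210 cells, then dosed ip or orally once daily for 5 days starting 24 h later. Survival was followed over 60 days, and ILS% was derived from mean survival days versus untreated controls.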

Series [1] is described as follows: Diuretic activity, acute sodium loaded mouse screening test. In kind it is in vivo, male mice. The following applies: 50 mg/kg oral in 1% saline; for Cl^- / K^+ / Na^+: urine. On the procedure:
The diuretic activity of the compounds of this invention was assayed by the diuresis screening test referred to as "acute sodium loaded mouse". This test was carried out by the following method.
The acute sodium loaded mouse screening test was carried out by using a 10-membered group of male mice (each weighing 18 to 24 g). Test compounds were incorporated in 1% saline (NaCl) solution and orally administered in a volume of 10 ml/kg. The mice were placed in metabolic cages. Each treated group consisted of 10-members. Five members were placed in one cage. Tests were conducted by oral administrations of (A) 1% saline (NaCl) solution to the control group and (B) 1% saline (NaCl) solution containing a test compound according to this invention.
The determination was carried out for sodium, potassium, and chlorine in each pooled urine sample. The determination of sodium and potassium was carried out by flame photometer. Chlorine was determined by chloride analysis apparatus. The analytical values of sodium, potassium, and chlorine were shown with an average mg equivalent (m Eq)/Kg/5 hours, and the diuretic activity was shown with an average urine volume (ml)/Kg/5 hours.

The nature of series [2]: Acute toxicity (LD50, Behrens-Karber method). The note with it: mouse, in vivo, ip, mortality during 30 days. The series is classed as in vivo, ICR mice. As to the method: Test compounds, dissolved or suspended in 0.5% aqueous CMC, were each intraperitoneally administered to ICR mice in a dose of 0.1 ml per 10 g body weight. LD50 (mg/kg) value of each test compound was calculated from the mortality of mice during 30 days by the Behrens-Karber method.

For the molecule `CCCCO[C@H]1O[C@H](CN(CCCOC)C(=O)N(CCCl)N=O)[C@@H](O)[C@H](O)[C@H]1O` [Compound 10], in the series with Ehrlich acites carcinoma (read-out: Activity), the response vs control in vivo at 25 mg/kg was in the range of 0 to 10% and the response vs control in vivo at 100 mg/kg is 0 to 10%. In addition, in the series on Ehrlich acites carcinoma (read-out: T/C %), the response vs control in vivo at 25 mg/kg is 0% and the response vs control in vivo at 100 mg/kg was 0%. Further, in the series on Leukemia L1210, the ED (maximum ILS) was determined as 150 mg/kg, the ED30 was found to be 3.1 mg/kg, the “Survivors after 60 days” value is on record as 6/6 and the “Max. ILS %” value is above 700%. Also, in the series with Leukemia L1210, the “Therapeutic ratio TR” value amounted to 48.4. Further, in series [1], the Urine volume amounted to 8.7 ml/kg/5 hrs, the “Cl^-” value was found to be 0.6 mEq/kg/5 hrs, the “K^+” value is 0.8 mEq/kg/5 hrs and the “Na^+” value worked out at 0.5 mEq/kg/5 hrs. In addition, in series [2], the LD50 (as a rule, the dose at which mortality reaches 50%) at 720 h stood at 480 mg/kg.
On to `CCOCCCN(C(=O)N(CCCl)N=O)[C@H]1[C@H](OC(C)CC)OC[C@H](O)[C@@H]1O` (stereo partly drawn) [Compound 157, 3-(3-ethoxy-n-propyl)-3-(sec-butyl α-L-arabinopyranose-2-yl)-1-(2-chloroethyl)-1-nitrosourea], for which, in the series on Ehrlich acites carcinoma (read-out: Activity), the response vs control in vivo at 25 mg/kg lay within 0 to 10% and the response vs control in vivo at 100 mg/kg lay in the range of 0 to 10%. For the same molecule, in the series on Ehrlich acites carcinoma (read-out: T/C %), the response vs control in vivo at 25 mg/kg turned out to be 0% and the response vs control in vivo at 100 mg/kg amounted to 0%. Further, in the series on Leukemia L1210, the ED (maximum ILS) turned out to be 170 mg/kg, the ED30 is 2.94 mg/kg, the “Survivors after 60 days” value is given as 6/6 and the “Max. ILS %” value is above 700%. For the same molecule, the “Therapeutic ratio TR” value with Leukemia L1210 came out at 57.8. Also, in series [1], the Urine volume came to 10.5 ml/kg/5 hrs, the “Cl^-” value was determined as 1.1 mEq/kg/5 hrs, the “K^+” value was 1.0 mEq/kg/5 hrs and the “Na^+” value worked out at 0.8 mEq/kg/5 hrs. Also, the LD50 at 720 h in series [2] was 550 mg/kg.
With `COCCCN(C(=O)N(CCCl)N=O)C1C(OCC(C)C)OC(CO)C(O)C1O` [Compound 74, 3-(3-methoxy-n-propyl)-3-(isobutyl α-D-glucopyranose-2-yl)-1-(2-chloroethyl)-1-nitrosourea], in the series with Ehrlich acites carcinoma (read-out: Activity), the response vs control in vivo at 25 mg/kg fell in the range of 0 to 10% and the response vs control in vivo at 100 mg/kg lay in the range of 0 to 10%. In the series on Ehrlich acites carcinoma (read-out: T/C %), the response vs control in vivo at 25 mg/kg worked out at 0% and the response vs control in vivo at 100 mg/kg came to 0%. In the series with Leukemia L1210, the ED (maximum ILS) stood at 170 mg/kg, the ED30 was determined as 3.92 mg/kg, the “Survivors after 60 days” value is 6/6 and the “Max. ILS %” value is reported as above 700%. In addition, the “Therapeutic ratio TR” value with Leukemia L1210 is listed as 43.2. Moreover, in series [1], the Urine volume was found to be 9.4 ml/kg/5 hrs, the “Cl^-” value came out at 0.7 mEq/kg/5 hrs, the “K^+” value came out at 0.8 mEq/kg/5 hrs and the “Na^+” value was determined as 0.6 mEq/kg/5 hrs. Besides, the LD50 at 720 h in series [2] was determined as 560 mg/kg.
Consider `CCCCO[C@H]1O[C@H](CO)[C@@H](O)[C@H](O)[C@H]1N(CCCOC)C(=O)N(CCCl)N=O` [Compound 57, 3-(3-methoxy-n-propyl)-3-(n-butyl α-D-glucopyranose-2-yl)-1-(2-chloroethyl)-1-nitrosourea], for which, in the series on Ehrlich acites carcinoma (read-out: Activity), the response vs control in vivo at 25 mg/kg lay in the range of 0 to 10% and the response vs control in vivo at 100 mg/kg was in the range of 0 to 10%. Besides, in the series with Ehrlich acites carcinoma (read-out: T/C %), the response vs control in vivo at 25 mg/kg came to 0% and the response vs control in vivo at 100 mg/kg was 0%. Also, in the series on Leukemia L1210, the ED (maximum ILS) is 190 mg/kg, the ED30 came out at 5.5 mg/kg, the “Survivors after 60 days” value is 3/6 and the “Max. ILS %” value is above 355%. For the same molecule, in the series with Leukemia L1210, the “Therapeutic ratio TR” value was found to be 34.5. Moreover, in series [1], the Urine volume worked out at 9.7 ml/kg/5 hrs, the “Cl^-” value stood at 0.8 mEq/kg/5 hrs, the “K^+” value came to 0.9 mEq/kg/5 hrs and the “Na^+” value is recorded as 0.7 mEq/kg/5 hrs. In series [2], the LD50 at 720 h came to 570 mg/kg.
Consider `COCCN(C(=O)N(CCCl)N=O)C1C(CO)OC(OCC(C)C)C(O)C1O` [Compound 93, 3-(2-methoxyethyl)-3-(isobutyl α-D-glucopyranose-4-yl)-1-(2-chloroethyl)-1-nitrosourea], for which, in the series with Ehrlich acites carcinoma (read-out: Activity), the response vs control in vivo at 25 mg/kg lay within 0 to 10% and the response vs control in vivo at 100 mg/kg lay in the range of 0 to 10%. Also, in the series with Ehrlich acites carcinoma (read-out: T/C %), the response vs control in vivo at 25 mg/kg stood at 0% and the response vs control in vivo at 100 mg/kg amounted to 0%. For the same molecule, in the series on Leukemia L1210, the ED (maximum ILS) was determined as 160 mg/kg, the ED30 was determined as 4.49 mg/kg, the “Survivors after 60 days” value is reported as 3/6 and the “Max. ILS %” value is reported as above 370%. Besides, the “Therapeutic ratio TR” value in the series on Leukemia L1210 amounted to 35.6. In series [1], the Urine volume came to 9.6 ml/kg/5 hrs, the “Cl^-” value turned out to be 0.7 mEq/kg/5 hrs, the “K^+” value turned out to be 0.9 mEq/kg/5 hrs and the “Na^+” value is 0.6 mEq/kg/5 hrs. The median lethal dose (LD50) at 720 h in series [2] was determined as 530 mg/kg.
As to `CCOCCCN(C(=O)N(CCCl)N=O)C1C(OC2CCCCC2)OC(CO)C(O)C1O` [Compound 65, 3-(3-ethoxy-n-propyl)-3-(cyclohexyl α-D-glucopyranose-2-yl)-1-(2-chloroethyl)-1-nitrosourea], in the series with Ehrlich acites carcinoma (read-out: Activity), the response vs control in vivo at 25 mg/kg was 0 to 10% and the response vs control in vivo at 100 mg/kg was in the range of 0 to 10%. Further, in the series with Ehrlich acites carcinoma (read-out: T/C %), the response vs control in vivo at 25 mg/kg was found to be 0% and the response vs control in vivo at 100 mg/kg is 0%. Also, in the series on Leukemia L1210, the ED (maximum ILS) is 200 mg/kg, the ED30 amounted to 4.44 mg/kg, the “Survivors after 60 days” value is given as 5/6 and the “Max. ILS %” value is above 620%. Besides, the “Therapeutic ratio TR” value with Leukemia L1210 is on record as 45.0. In addition, in series [1], the Urine volume came to 8.8 ml/kg/5 hrs, the “Cl^-” value is given as 0.7 mEq/kg/5 hrs, the “K^+” value amounted to 0.8 mEq/kg/5 hrs and the “Na^+” value amounted to 0.6 mEq/kg/5 hrs. The LD50 at 720 h in series [2] came to 655 mg/kg.
Turning to `COC(C)CN(C(=O)N(CCCl)N=O)C1C(O)C(CO)OC(OC2CCCCC2)C1O` [Compound 86, 3-(2-methoxy-n-propyl)-3-(cyclohexyl α-D-glucopyranose-3-yl)-1-(2-chloroethyl)-1-nitrosourea], in the series on Ehrlich acites carcinoma (read-out: Activity), the response vs control in vivo at 25 mg/kg was 0 to 10% and the response vs control in vivo at 100 mg/kg was in the range of 0 to 10%. Also, in the series on Ehrlich acites carcinoma (read-out: T/C %), the response vs control in vivo at 25 mg/kg worked out at 0% and the response vs control in vivo at 100 mg/kg turned out to be 0%. In the series with Leukemia L1210, the ED (maximum ILS) was 200 mg/kg, the ED30 is 4.9 mg/kg, the “Survivors after 60 days” value was 4/6 and the “Max. ILS %” value is above 430%. The “Therapeutic ratio TR” value in the series with Leukemia L1210 is 40.8. In addition, in series [1], the Urine volume stood at 10.2 ml/kg/5 hrs, the “Cl^-” value came to 0.9 mEq/kg/5 hrs, the “K^+” value is 1.0 mEq/kg/5 hrs and the “Na^+” value was 0.7 mEq/kg/5 hrs. In addition, the LD50 at 720 h in series [2] came to 695 mg/kg.
For `COCCN(C[C@H]1O[C@H](OCC(C)C)[C@H](O)[C@@H](O)[C@@H]1O)C(=O)N(CCCl)N=O` [Compound 15, 3-(2-methoxyethyl)-3-(isobutyl α-D-glucopyranose-6-yl)-1-(2-chloroethyl)-1-nitrosourea], in the series on Ehrlich acites carcinoma (read-out: Activity), the response vs control in vivo at 25 mg/kg lay within 0 to 10% and the response vs control in vivo at 100 mg/kg is 0 to 10%. For the same molecule, in the series on Ehrlich acites carcinoma (read-out: T/C %), the response vs control in vivo at 25 mg/kg turned out to be 0% and the response vs control in vivo at 100 mg/kg is 0%. In the series with Leukemia L1210, the ED (maximum ILS) was 180 mg/kg, the ED30 turned out to be 2.9 mg/kg, the “Survivors after 60 days” value is listed as 6/6 and the “Max. ILS %” value is listed as above 700%. In addition, the “Therapeutic ratio TR” value in the series with Leukemia L1210 turned out to be 62.1. Moreover, in series [1], the Urine volume is listed as 9.2 ml/kg/5 hrs, the “Cl^-” value was 0.7 mEq/kg/5 hrs, the “K^+” value is 0.9 mEq/kg/5 hrs and the “Na^+” value is 0.6 mEq/kg/5 hrs. In addition, the LD50 at 720 h in series [2] was 570 mg/kg.

The values are drawn from patent publication US4593090A, “Novel nitrosourea compounds, method for preparing same, and pharmaceutical composition containing same” (Gogo Kimura, priority 1981, dated 1986).
